Key:
[1] = cited from earlier work
[2] = system: CT-26 (Mouse colon cancer) cells; experiment: In vivo behavior, in vivo fluorescence imaging for 24 hours; parameters: species or system BALB/c nude mice; conditions: intravenous, 0.4 mg/ml based on chlorine e6, 24 hours
Experimental: In order to confirm the in vivo behavior of the pH-sensitive photodynamic therapeutic agent prepared in the above Example 5, CT-26 (Mouse colon cancer) cells were inoculated into BALB/c nude mice. When the size of the cancer tissue reaches about 50-100 mm^3, a pH-sensitive photodynamic therapeutic agent (Ce6@CDs) and chlorine e6 alone formulation (Free Ce6) as a comparative group were injected intravenously at 0.4 mg/ml based on chlorine e6, and for 24 hours after then, the in vivo behavior was confirmed using in vivo fluorescence imaging (fluorescence-labeled bioimaging instrument) hourly.

[3] = Active oxygen generation, singlet oxygen sensor green (SOSG), 670 nm laser; conditions: for singlet oxygen generation: 670 nm laser, 20 mW/cm^2
Experimental: A singlet oxygen sensor green (SOSG) capable of detecting singlet oxygen was used to confirm the generation of active oxygen in particles of a pH-sensitive photodynamic therapeutic agent prepared in the above Example 5.
Specifically, 1 ml of a solution in which SOSG was dissolved and 1 ml of a solution in which a pH-sensitive carbon nanoparticle-based photodynamic therapeutic agent was dissolved were mixed, and a 670 nm laser was irradiated. The laser was irradiated with an energy of 20 mW/cm^2, and the fluorescence intensity was measured using a fluorescence spectrophotometer every 10 seconds (0.2 J/cm^2) to confirm the generation of active oxygen. In addition, in order to measure the efficiency of generating reactive oxygen species according to pH, 1 ml of a solution in which a pH-sensitive photodynamic therapeutic agent having pH 7.4, the pH in vivo and a pH of 6.5 in a cancer environment, was dissolved and 1 ml of a SOSG solution were mixed, and a 670 nm laser is irradiated. The laser was irradiated with an energy of 50 mW/cm^2, and the fluorescence intensity was measured using a fluorescence spectrophotometer every 10 seconds (0.5 J/cm^2) to confirm the generation of active oxygen species.

[4] = system: CT-26 (Mouse colon cancer) cells; experiment: In vivo photodynamic anticancer and immune anticancer effect, both cancer tissues for 15 days; parameters: species or system BALB/c mice; conditions: 0.4 mg/ml based on chlorine e6 i.v.
Text: In order to confirm the anticancer effect in vivo and the anticancer effect due to photodynamic-based immunity induction of the pH-sensitive photodynamic therapeutic agent prepared in the above Example 5, CT-26 (Mouse colon cancer) cells were inoculated subcutaneously in the left leg of BALB/c mice (1×10^6 cells) and the right leg (5×10^5 cells). When the size of the cancer tissue reaches about 50 mm^3, a pH-sensitive photodynamic therapeutic agent, chlorine e6 alone formulation as a comparative group, pH-sensitive carbon nanoparticles without drug encapsulation, and PBS were injected intravenously at 0.4 mg/ml based on chlorine e6, and after 24 hours after intravenous injection, only the left cancer tissue was irradiated with a laser. This was repeated twice, and the laser was irradiated for 1000 seconds (100 J/cm^2) with an energy of 100 mW/cm^2. By measuring the size of both cancer tissues for 15 days, the photodynamic anticancer effect and the resulting immune anti-cancer effect were confirmed.

[5] = system: CT-26 (Mouse colon cancer) cells; experiment: Intracellular influx according to pH, confocal microscopy; type: cell-based; conditions: pH 7.4, 4 hours
Experimental: In order to confirm the influx effect into cancer cells at pH 7.4 and pH 6.5 using the pH-sensitive photodynamic therapeutic agent prepared in the above Example 5, CT-26 (Mouse colon cancer) cells were used. The pH-sensitive carbon nanoparticle-based photodynamic therapeutic agent was treated for 4 hours in the culture solutions of pH 7.4 and pH 6.5, respectively, and chlorine e6 was treated alone as a control group for comparative evaluation. The intracellular influx was analyzed by fluorescence (460, 665 nm) of carbon nanoparticles and chlorine e6 using confocal microscopy.

[6] = system: CT-26 (Mouse colon cancer) cells; experiment: Photodynamic cancer cell killing at pH 6.5, MTT assay; conditions: pH 6.5, 1 μg/ml based on chlorine e6, 670 nm laser irradiated (+), 2 J/cm^2
Experimental: In order to confirm the cancer cell killing effect of the pH-sensitive photodynamic therapeutic agent prepared in the above Example 5 at a cancer environment pH of 6.5, CT-26 (Mouse colon cancer) cells were used. Samples of the pH-sensitive carbon nanoparticle-based photodynamic therapeutic agent and chlorine e6 alone as other comparative group and carbon nanoparticles without pH sensitivity (Comparative Example 1) were treated with 1 μg/ml based on the concentration of chlorine e6 in the pH 6.5 culture medium, equally and a 670 nm laser was irradiated thereto. The laser was irradiated for […] (2 J/cm^2) with an energy of 50 mW/cm^2. Cell death was performed using the MTT assay, and analyzed at 570 nm using a microplate reader.

[7] = system: PANC-1 (human pancreas cancer); experiment: Cancer cell killing, MTT assay at pH 7.4 and pH 6.5; type: cell-based; conditions: regardless of pH (7.4, 6.5)
Experimental: (§1) In order to confirm the cancer cell killing effect of the CA and API-based pH-sensitive carbon nanoparticle drug carrier encapsulated with doxorubicin prepared in Example 4, HCT-116 (human colon cancer), SKBR-3 (human breast cancer), PANC-1 (human pancreas cancer) cells were used. The pH-sensitive carbon nanoparticle drug carrier was treated by concentration of doxorubicin in culture solutions of pH 7.4 and pH 6.5, respectively, and the comparison group was comparatively evaluated by treating doxorubicin alone by concentration. Cell death was performed using the MTT assay, and analyzed at 490 nm using a microplate reader.

[8] = system: HCT-116 (human colon cancer); experiment: as above; type: cell-based; conditions: regardless of pH (7.4, 6.5)
Experimental: as §1

[9] = system: SKBR-3 (human breast cancer); experiment: as above; type: cell-based; conditions: regardless of pH (7.4, 6.5)
Experimental: as §1

[10] = system: HCT-116 (Human colon cancer) cells; experiment: Inhibition of cancer growth in vivo, cancer tissue size for 15 days; parameters: species or system BALB/c mice; conditions: intravenous, 2 mg/ml based on doxorubicin
Experimental: After that, the size of the cancer tissue was measured for 15 days to confirm the anticancer effect.

NCCCn1ccnc1 [API, 1-(3-aminopropyl) imidazole]
pKa value [1]: 6.9

C=Cc1c(C)c2cc3nc(c(CC(=O)O)c4[nH]c(cc5nc(cc1[nH]2)C(C)=C5CC)c(C)c4C(=O)O)[C@@H](CCC(=O)O)[C@@H]3C [Free Ce6, chlorine e6]
in vivo fluorescence behavior [2]: fluorescence quickly disappeared | singlet oxygen generation [3]: hardly produce singlet oxygen | singlet oxygen generation according to pH ([3]; pH 7.4 and pH 6.5, 670 nm laser, 50 mW/cm^2): hardly generated singlet oxygen | cancer growth regardless of laser irradiation [4]: cancer rapidly grows | degree of influx into cells [5]: similar | cell death rate [6]: 50%

COc1cccc2c1C(=O)c1c(O)c3c(c(O)c1C2=O)C[C@@](O)(C(=O)CO)C[C@@H]3O[C@H]1C[C@H](N)[C@H](O)[C@H](C)O1 [Free DOX, doxorubicin]
concentration at which cells died [7]: about 50 ug/ml | concentration at which cells died [8]: about 50 ug/ml | concentration at which cells died [9]: about 50 ug/ml | cancer growth in vivo [10]: cancer continued to grow

pheophorbide a [Pheo A]
singlet oxygen generation [3]: hardly produce singlet oxygen

Reference: US12409150B2, “pH-sensitive carbon nanoparticles, preparation method therefor, and drug delivery using same” (PCE Tech Co., Ltd., priority 2018, dated 2025)
